Data from patent US20040054130A1, “Insulin potentiating peptides” (priority 2000, published 2004).
Ends that are not written are not given here.

Key:
[1] = target: insulin receptor tyrosine kinase (Homo sapiens, UniProt P06213); settings: cited from earlier work
[2] = system: insulin-resistant Zucker fatty (fa/fa) rats; settings: glucose clamp technique; cited from earlier work
normal male Wistar rats = assay: Intravenous insulin tolerance test (IVITT); assay type: in vivo, rat; settings: 5 μmol/kg i.v.; for Reduction in Blood Glucose: 0.1 U insulin/kg
Description: IVITTs (0.1 U insulin/kg body weight) were performed on overnight-fasted Wistar male rats as previously described (Lim et al, 1992). Blood samples were taken for glucose estimation at 15, 30, 45, 60 min after the commencement of the tests. Six animals in each group were used.
IVITTs were performed on normal male Wistar rats after a single intravenous (i.v.) injection of the hGH peptide analogues at a dose of 5 μmol/kg body weight. The insulin-potentiating effects of peptides 6, 7, 8 and 10 on decreasing blood glucose levels of treated animals became significant since 30 min after the commencement of the test. Bioactivity was retained when the Arg^8 or Phe^10 residue of Asu^11-hGH(6-13) peptide was substituted with Lys or Tyr respectively (1.92±0.17 or 1.62±0.18 vs. 1.65±0.12 mmol/L at 45 min), as shown in Table 3. However, no insulin-potentiating effect was observed when either Arg^8 or Phe^10 was substituted by Gly (0.92±0.08 or 1.08±0.08 mmol/L respectively vs. 1.00±0.10 mmol/L of control at 45 min). Asu^11-hGH(8-13) also elicited this insulin-potentiating effect, but with lower potency.

Leu-Ser-Arg-Leu-Phe-Asu-Asn-Ala (LSRLFDNA-NH2; not fully specified; printed as Leu-Ser-Arg-Leu-Phe-Asu-Asn-Ala) [Peptide 7]
effect on insulin receptor tyrosine kinase activity [1]: stimulating
glucose tolerance [2]: improve glucose tolerance
insulin-potentiating effect on decreasing blood glucose in IVITT (in words) (normal male Wistar rats; from 30 min after commencement): significant
Reduction in Blood Glucose (normal male Wistar rats; 15 min): 1.08 ± 0.09 mmol/L
Reduction in Blood Glucose (normal male Wistar rats; 30 min): 1.38 ± 0.13 mmol/L
Reduction in Blood Glucose (normal male Wistar rats; 45 min): 1.65 ± 0.12 mmol/L
Reduction in Blood Glucose (normal male Wistar rats; 45 min, listed as Asu^11-hGH(6-13)): 1.65 ± 0.12 mmol/L
Reduction in Blood Glucose (normal male Wistar rats; 60 min): 1.77 ± 0.19 mmol/L
